{"source": "patent US7071297B2", "about": "“Tolerogenic peptides from myelin basic protein” (Apitope Technology (Bristol) Limited, priority 2002, dated 2006)", "key": {"T cell clone MS60:D2": {"tested_on": "T cell clone MS60:D2", "experiment": "Presentation of nested MBP peptides by fixed APC (Mgar cells) to T cell clone MS60:D2, proliferation assay", "assay_type": "cell-based, human", "conditions": "p-formaldehyde fixed Mgar (HLA-DR2+ve) cells, T cell clone MS60:D2, 3H-thymidine uptake, FIG. 1"}, "[1]": {"conditions": "cited from earlier work; for induction of tolerance: administered in solution"}, "I-A^S": {"target": "T1, I-A^S (Mus musculus, UniProt P06345+P14437)", "T1 sequence (P14437 1-233)": "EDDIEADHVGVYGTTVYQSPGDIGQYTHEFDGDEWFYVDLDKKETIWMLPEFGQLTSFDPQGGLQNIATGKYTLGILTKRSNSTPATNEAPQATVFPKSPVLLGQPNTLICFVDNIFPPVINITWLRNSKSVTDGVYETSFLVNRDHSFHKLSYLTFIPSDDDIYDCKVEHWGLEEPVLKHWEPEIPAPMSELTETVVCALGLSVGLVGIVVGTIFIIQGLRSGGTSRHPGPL", "T1 sequence (P06345 28-263)": "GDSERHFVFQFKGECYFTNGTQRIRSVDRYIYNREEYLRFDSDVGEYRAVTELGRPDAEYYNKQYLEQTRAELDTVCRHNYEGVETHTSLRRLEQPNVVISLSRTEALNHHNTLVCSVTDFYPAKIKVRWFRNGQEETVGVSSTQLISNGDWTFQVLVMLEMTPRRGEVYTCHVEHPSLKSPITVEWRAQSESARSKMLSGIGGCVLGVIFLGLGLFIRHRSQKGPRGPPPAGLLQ", "conditions": "cited from earlier work"}, "T cell clone N5": {"tested_on": "T cell clone N5", "experiment": "Presentation of MBP peptide 140-154 by fixed APC to T cell clone N5, proliferation assay", "assay_type": "cell-based, human", "conditions": "T cell clone N5, FIG. 2", "method": "MBP-specific T cell lines (TCL) are generated from 8 MS patients and 2 healthy control donors. PBMC from each subject are separated as described above and plated out at 1×10^6 cells/ml in 6-well plates in the presence of MBP (50 μg/ml); a portion of PBMC from each subject is regularly frozen and stored for subsequent restimulations. Seven days later the cells are fed with fresh medium containing 2% IL-2 (Lymphocult-HT; Biotest LTD., Birmingham, UK), and on day 12 of culture all cells are restimulated with antigen, IL-2 and irradiated (2500 Rad) autologous PBMC as a source of antigen presenting cells (APC), at a cell ratio of 1T cell:5 APC. Cells are expanded in IL-2 every 3-4 days, and on day 14 are restimulated with antigen, IL-2 and PBMC, as described above. On the day of the first restimulation cells are examined for specific proliferation to MBP. Briefly, 2×10^4 T cells and 1×10^5 irradiated autologous PBMC are cultured in triplicate, in 96-well round-bottom plates, in the presence of MBP. […]\nLive or p-formaldehyde fixed Mgar (HLA-DR2+ve) cells were incubated with peptides in serum or in serum alone, together with T cells. The T cell proliferative response was measured by ^3H-thymidine uptake as follows. […] [^3H]-Thymidine incorporation is determined using a Microbeta liquid scintillation counter (LKB-Wallac). […]"}, "[2]": {"tested_on": "lymph node cells of HLA:DR2 transgenic mice", "experiment": "Induction of tolerance in HLA:DR2 transgenic mouse, lymph node proliferation assay", "assay_type": "in vivo"}}, "note": "Where two headings read alike, the source gives them in different places."}
{"substance": "AHKGFKGVDAQGTLS (listed as Homo sapiens) [MBP 137-151, myelin basic protein peptide 137-151]", "values": [{"measurement": "presentation by fixed APC to T cells without further processing (apitope)", "setting": "T cell clone MS60:D2", "result": "apitopes"}]}
{"substance": "MBP[89-101]: myelin basic protein (MBP) peptide 89-101, an immunodominant antigen after immunisation (PHLIRLFSRDAPG; UniProt P04370 89-101, looked up, fragment)", "values": [{"measurement": "induction of tolerance", "setting": "[1]", "result": "not tolerogenic"}, {"measurement": "induction of tolerance", "setting": "[1]; listed as 89-101", "result": "ineffective at inducing tolerance"}, {"measurement": "immunogenicity (priming for T cell reactivity and induction of EAE)", "setting": "[1]; after immunisation", "result": "very effective immunogen"}, {"measurement": "affinity of binding to I-A^S", "setting": "I-A^S", "result": "relatively high affinity"}]}
{"substance": "KGFKGVDAQGTLSKI (listed as Homo sapiens) [MBP 139-153, myelin basic protein peptide 139-153]", "values": [{"measurement": "presentation by fixed APC to T cells without further processing (apitope)", "setting": "T cell clone MS60:D2", "result": "apitopes"}]}
{"substance": "YKSAHKGFKGVDAQG (listed as Homo sapiens) [MBP 134-148, myelin basic protein peptide 134-148]", "values": [{"measurement": "presentation by fixed APC to T cells without further processing (apitope)", "setting": "T cell clone MS60:D2", "result": "apitopes"}]}
{"substance": "GFKGVDAQGTLSKIF (listed as Homo sapiens) [MBP 140-154, myelin basic protein peptide 140-154]", "values": [{"measurement": "presentation by fixed APC to T cells without further processing (apitope)", "setting": "T cell clone MS60:D2", "result": "apitopes"}, {"measurement": "presentation by fixed APC without further processing", "setting": "T cell clone N5", "result": "can be presented by fixed APC without further processing"}, {"measurement": "SI values of the one pre-treated mouse that failed to show induction of tolerance", "setting": "[2]; Group B, over peptide concentration range 1-150 ugml^-1", "result": "12-15"}, {"measurement": "Stimulation Index (SI) median of lymphocyte proliferation", "setting": "[2]; Group B: 100 ug peptide i.n. days -8, -6, -4, immunised with same peptide in CFA, restimulated with 150 ugml^-1 peptide", "result": 3}, {"measurement": "induction of tolerance", "setting": "[2]; intranasal pre-treatment, lymphocytes from HLA-DR2 mice", "result": "induced tolerance"}]}
{"substance": "SAHKGFKGVDAQGTL (listed as Homo sapiens) [MBP 136-150, myelin basic protein peptide 136-150]", "values": [{"measurement": "presentation by fixed APC to T cells without further processing (apitope)", "setting": "T cell clone MS60:D2", "result": "apitopes"}]}
{"substance": "KSAHKGFKGVDAQGT (listed as Homo sapiens) [MBP 135-149, myelin basic protein peptide 135-149]", "values": [{"measurement": "presentation by fixed APC to T cells without further processing (apitope)", "setting": "T cell clone MS60:D2", "result": "apitopes"}]}
{"substance": "HKGFKGVDAQGTLSK (listed as Homo sapiens) [MBP 138-152, myelin basic protein peptide 138-152]", "values": [{"measurement": "presentation by fixed APC to T cells without further processing (apitope)", "setting": "T cell clone MS60:D2", "result": "apitopes"}]}
